Test results reported in ChEMBL document CHEMBL4507311, “Data for DCP probe A-1155463” (2021).

Experiments:
[1] = biological target: Apoptosis regulator Bcl-2 (Homo sapiens, UniProt P10415); assay: Time-resolved fluorescence energy transfer (TR-FRET) with BCL2
[2] = biological target: Induced myeloid leukemia cell differentiation protein Mcl-1 (Homo sapiens, UniProt Q07820); assay: Time-resolved fluorescence energy transfer (TR-FRET) with MCL1
[3] = biological target: Prostaglandin G/H synthase 1 (Homo sapiens) (UniProt P23219); assay: COX1(h) Eurofins-Cerep enzyme and uptake assay; conditions: Compound concentration 10.0 uM
Prostaglandin G/H synthase 1 (Homo sapiens), sequence (P23219 whole entry): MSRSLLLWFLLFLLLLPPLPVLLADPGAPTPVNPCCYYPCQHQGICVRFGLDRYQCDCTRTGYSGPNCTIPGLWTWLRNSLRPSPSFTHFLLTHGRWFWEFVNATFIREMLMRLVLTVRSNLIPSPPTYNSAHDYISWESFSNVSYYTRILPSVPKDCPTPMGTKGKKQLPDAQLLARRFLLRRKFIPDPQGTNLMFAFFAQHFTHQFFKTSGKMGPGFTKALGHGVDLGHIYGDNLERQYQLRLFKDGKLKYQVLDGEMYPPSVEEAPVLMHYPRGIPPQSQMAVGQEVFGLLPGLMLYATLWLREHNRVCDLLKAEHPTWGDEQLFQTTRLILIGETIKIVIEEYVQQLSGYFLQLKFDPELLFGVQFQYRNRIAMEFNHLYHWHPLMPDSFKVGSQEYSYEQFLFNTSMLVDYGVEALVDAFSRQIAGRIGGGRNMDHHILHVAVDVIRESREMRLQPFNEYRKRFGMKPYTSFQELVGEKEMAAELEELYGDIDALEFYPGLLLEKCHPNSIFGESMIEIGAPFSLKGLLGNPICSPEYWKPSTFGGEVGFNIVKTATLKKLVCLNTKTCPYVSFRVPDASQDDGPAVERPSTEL

[4] = biological target: MAO-B (amine oxidase [flavin-containing] B) (Homo sapiens, UniProt P27338); assay: MAO-B (h) recombinant enzyme Eurofins-Cerep enzyme and uptake assay; parameters: incubation time 60 min, incubation temperature 37°C, substrate/stimulus/tracer D-Luciferin derivative (4 µM); conditions: probe D-Luciferin derivative (4 µM), compound concentration 10 uM, read-out: % Inhibition of Control Values (Mean n=2)
MAO-B (amine oxidase [flavin-containing] B), sequence (P27338 whole entry): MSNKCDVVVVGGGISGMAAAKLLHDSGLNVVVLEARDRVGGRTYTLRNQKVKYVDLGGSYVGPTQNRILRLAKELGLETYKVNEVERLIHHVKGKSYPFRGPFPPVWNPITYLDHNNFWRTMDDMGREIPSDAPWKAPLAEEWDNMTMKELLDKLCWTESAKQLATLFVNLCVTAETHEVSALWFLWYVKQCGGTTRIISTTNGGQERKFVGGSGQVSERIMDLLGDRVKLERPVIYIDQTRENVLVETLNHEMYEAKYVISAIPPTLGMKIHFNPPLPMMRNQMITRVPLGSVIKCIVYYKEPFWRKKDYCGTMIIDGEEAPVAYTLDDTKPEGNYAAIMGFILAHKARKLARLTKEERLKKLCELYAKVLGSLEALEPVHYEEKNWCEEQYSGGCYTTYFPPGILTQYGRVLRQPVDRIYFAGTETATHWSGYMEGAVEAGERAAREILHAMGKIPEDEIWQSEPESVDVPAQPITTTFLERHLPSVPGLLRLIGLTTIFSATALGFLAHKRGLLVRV

[5] = biological target: Sodium/potassium-transporting ATPase (Sus scrofa) (UniProt P05027+P05024+D2WKD8+D2WKD7+F1ST41); assay: ATPase (Na+/K+) Eurofins-Cerep enzyme and uptake assay; assay type: protein-complex assay; conditions: Compound concentration 10.0 uM
[6] = biological target: Adenosine receptor A2a (Homo sapiens) (UniProt P29274); assay: A2A (h) Eurofins-Cerep binding assay; parameters: ligand concentration 6 nM; conditions: filed as agonist, Compound concentration 10.0 uM
Adenosine receptor A2a (Homo sapiens), sequence (P29274 whole entry): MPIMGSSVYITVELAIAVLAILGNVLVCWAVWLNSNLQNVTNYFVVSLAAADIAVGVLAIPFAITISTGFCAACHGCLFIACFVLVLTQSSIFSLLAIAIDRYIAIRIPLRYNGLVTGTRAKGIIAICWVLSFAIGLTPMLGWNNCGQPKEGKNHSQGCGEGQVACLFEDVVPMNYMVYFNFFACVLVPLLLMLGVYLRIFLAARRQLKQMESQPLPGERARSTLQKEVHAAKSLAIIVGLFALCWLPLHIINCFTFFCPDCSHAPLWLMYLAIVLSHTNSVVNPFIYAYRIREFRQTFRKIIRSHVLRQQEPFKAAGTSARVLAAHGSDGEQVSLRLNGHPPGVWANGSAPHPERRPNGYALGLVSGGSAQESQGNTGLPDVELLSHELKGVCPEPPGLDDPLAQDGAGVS

[7] = biological target: T1, Alpha-1B adrenergic receptor (Homo sapiens) (UniProt P35368); assay: Alpha1B (h) Eurofins-Cerep binding assay; parameters: ligand concentration 0.15 nM; conditions: filed as antagonist, Compound concentration 10.0 uM
T1 sequence (whole entry): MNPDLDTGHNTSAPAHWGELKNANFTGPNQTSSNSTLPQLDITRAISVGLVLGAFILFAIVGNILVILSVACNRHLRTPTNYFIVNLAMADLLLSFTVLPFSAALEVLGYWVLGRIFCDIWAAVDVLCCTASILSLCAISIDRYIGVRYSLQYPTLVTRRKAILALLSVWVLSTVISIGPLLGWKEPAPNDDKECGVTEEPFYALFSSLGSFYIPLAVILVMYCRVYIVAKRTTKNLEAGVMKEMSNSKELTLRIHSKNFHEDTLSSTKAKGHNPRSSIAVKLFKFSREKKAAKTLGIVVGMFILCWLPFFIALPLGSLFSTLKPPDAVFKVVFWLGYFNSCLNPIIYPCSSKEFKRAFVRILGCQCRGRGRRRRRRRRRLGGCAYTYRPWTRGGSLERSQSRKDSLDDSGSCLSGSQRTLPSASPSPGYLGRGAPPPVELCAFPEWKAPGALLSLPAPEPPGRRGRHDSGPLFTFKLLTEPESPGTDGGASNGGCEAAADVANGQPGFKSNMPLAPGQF

[8] = biological target: Translocator protein (Rattus norvegicus) (UniProt P16257); assay: BZD (peripheral) Eurofins-Cerep binding assay; parameters: ligand concentration 0.2 nM; conditions: filed as antagonist, Compound concentration 10.0 uM
Translocator protein (Rattus norvegicus), sequence (P16257 whole entry, looked up): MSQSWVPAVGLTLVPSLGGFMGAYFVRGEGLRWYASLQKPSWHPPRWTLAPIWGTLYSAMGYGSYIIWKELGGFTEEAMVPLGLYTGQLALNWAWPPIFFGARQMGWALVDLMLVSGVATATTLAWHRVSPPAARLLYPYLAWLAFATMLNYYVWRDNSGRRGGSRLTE

[9] = biological target: Calcitonin-gene-related peptide receptor, CALCRL/RAMP1 (Homo sapiens) (UniProt O60894+Q16602); assay: CGRP (h) Eurofins-Cerep binding assay; assay type: protein-complex assay; parameters: ligand concentration 0.03 nM; conditions: filed as agonist, Compound concentration 10.0 uM
[10] = biological target: Cholecystokinin receptor type A (Homo sapiens) (UniProt P32238); assay: CCK1 (CCKA) (h) Eurofins-Cerep binding assay; parameters: ligand concentration 0.08 nM; conditions: filed as agonist, Compound concentration 10.0 uM
[11] = biological target: D(2) dopamine receptor (Homo sapiens) (UniProt P14416); assay: D2S (h) Eurofins-Cerep binding assay; parameters: ligand concentration 0.3 nM; conditions: filed as antagonist, Compound concentration 10.0 uM
D(2) dopamine receptor (Homo sapiens), sequence (P14416 whole entry): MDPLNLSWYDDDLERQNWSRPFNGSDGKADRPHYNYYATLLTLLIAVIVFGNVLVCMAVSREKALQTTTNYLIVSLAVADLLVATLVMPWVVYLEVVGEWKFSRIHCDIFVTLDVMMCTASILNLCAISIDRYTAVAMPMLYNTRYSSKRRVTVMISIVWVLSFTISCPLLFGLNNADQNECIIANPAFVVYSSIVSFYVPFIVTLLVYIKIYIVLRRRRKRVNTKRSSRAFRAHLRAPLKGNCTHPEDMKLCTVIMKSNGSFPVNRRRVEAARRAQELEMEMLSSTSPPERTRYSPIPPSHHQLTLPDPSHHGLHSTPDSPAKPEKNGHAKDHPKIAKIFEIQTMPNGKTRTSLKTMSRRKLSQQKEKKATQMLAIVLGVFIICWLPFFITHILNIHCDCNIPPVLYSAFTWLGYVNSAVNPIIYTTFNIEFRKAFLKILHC

[12] = biological target: Endothelin-1 receptor (Homo sapiens) (UniProt P25101); assay: ETA (h) Eurofins-Cerep binding assay; parameters: ligand concentration 0.03 nM; conditions: filed as agonist, Compound concentration 10.0 uM
[13] = biological target: T2, Muscarinic acetylcholine receptor M2 (Homo sapiens) (UniProt P08172); assay: M2 (h) Eurofins-Cerep binding assay; parameters: ligand concentration 2 nM; conditions: filed as antagonist, Compound concentration 10.0 uM
T2 sequence (whole entry): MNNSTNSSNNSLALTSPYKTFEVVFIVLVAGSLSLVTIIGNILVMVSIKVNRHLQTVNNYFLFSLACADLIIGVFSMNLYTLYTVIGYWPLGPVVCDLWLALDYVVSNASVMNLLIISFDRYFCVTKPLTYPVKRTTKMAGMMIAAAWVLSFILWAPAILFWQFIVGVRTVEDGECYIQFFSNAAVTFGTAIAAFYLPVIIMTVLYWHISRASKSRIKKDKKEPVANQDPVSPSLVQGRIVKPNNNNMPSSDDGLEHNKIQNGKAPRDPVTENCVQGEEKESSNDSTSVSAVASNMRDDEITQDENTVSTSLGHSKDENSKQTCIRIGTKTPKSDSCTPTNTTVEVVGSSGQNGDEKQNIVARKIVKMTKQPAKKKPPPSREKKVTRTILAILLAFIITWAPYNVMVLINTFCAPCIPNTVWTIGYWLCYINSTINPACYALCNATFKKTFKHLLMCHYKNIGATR

[14] = biological target: Delta-type opioid receptor (Homo sapiens, UniProt P41143); assay: delta (DOP) (h) Eurofins-Cerep binding assay; parameters: ligand concentration 0.5 nM; conditions: filed as agonist, Compound concentration 10.0 uM
Delta-type opioid receptor, sequence (P41143 whole entry): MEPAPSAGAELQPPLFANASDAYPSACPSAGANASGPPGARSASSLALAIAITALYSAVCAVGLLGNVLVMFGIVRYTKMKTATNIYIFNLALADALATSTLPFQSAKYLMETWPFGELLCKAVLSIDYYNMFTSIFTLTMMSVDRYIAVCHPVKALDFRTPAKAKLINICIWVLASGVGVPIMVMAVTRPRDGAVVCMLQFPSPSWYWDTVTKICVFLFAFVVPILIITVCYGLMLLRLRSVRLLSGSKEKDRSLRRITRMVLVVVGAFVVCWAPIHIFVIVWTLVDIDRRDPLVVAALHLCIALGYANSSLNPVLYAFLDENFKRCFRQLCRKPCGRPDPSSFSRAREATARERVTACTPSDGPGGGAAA

[15] = biological target: T3, 5-hydroxytryptamine receptor 1A (Homo sapiens) (UniProt P08908); assay: 5-HT1A (h) Eurofins-Cerep binding assay; parameters: ligand concentration 0.5 nM; conditions: filed as agonist, Compound concentration 10.0 uM
T3 sequence (whole entry): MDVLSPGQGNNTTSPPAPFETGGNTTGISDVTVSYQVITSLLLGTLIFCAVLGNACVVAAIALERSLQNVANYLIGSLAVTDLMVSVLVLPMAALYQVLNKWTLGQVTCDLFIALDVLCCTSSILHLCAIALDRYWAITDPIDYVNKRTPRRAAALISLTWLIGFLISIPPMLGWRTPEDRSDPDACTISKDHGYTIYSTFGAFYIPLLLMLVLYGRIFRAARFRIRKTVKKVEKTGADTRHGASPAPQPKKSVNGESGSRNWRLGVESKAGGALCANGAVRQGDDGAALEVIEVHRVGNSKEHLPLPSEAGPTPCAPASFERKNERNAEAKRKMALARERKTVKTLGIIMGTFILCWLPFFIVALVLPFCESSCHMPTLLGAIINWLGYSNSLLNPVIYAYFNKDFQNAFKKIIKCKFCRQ

[16] = biological target: 5-hydroxytryptamine receptor 1B (Homo sapiens) (UniProt P28222); assay: 5-HT1B(h) Eurofins-Cerep binding assay; parameters: ligand concentration 1 nM; conditions: filed as antagonist, Compound concentration 10.0 uM
5-hydroxytryptamine receptor 1B (Homo sapiens), sequence (P28222 whole entry): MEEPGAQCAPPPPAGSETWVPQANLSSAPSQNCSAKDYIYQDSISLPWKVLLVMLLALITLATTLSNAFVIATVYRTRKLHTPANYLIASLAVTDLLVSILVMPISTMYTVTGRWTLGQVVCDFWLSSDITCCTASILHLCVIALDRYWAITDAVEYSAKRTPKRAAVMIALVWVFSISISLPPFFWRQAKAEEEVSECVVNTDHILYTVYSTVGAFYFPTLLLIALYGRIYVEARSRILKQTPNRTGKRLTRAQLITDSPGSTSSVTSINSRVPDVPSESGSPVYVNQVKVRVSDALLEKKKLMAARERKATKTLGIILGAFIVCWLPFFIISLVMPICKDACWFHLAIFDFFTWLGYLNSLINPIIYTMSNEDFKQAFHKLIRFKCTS

[17] = biological target: 5-hydroxytryptamine receptor 4 (Homo sapiens) (UniProt Q13639); assay: 5-HT4 e (h) Eurofins-Cerep binding assay; parameters: ligand concentration 0.3 nM; conditions: filed as antagonist, Compound concentration 10.0 uM
[18] = biological target: Sigma non-opioid intracellular receptor 1 (Homo sapiens, UniProt Q99720); assay: sigma (non-selective) (h) Eurofins-Cerep binding assay; parameters: ligand concentration 10 nM; conditions: filed as agonist, Compound concentration 10.0 uM
Sigma non-opioid intracellular receptor 1, sequence (Q99720 whole entry): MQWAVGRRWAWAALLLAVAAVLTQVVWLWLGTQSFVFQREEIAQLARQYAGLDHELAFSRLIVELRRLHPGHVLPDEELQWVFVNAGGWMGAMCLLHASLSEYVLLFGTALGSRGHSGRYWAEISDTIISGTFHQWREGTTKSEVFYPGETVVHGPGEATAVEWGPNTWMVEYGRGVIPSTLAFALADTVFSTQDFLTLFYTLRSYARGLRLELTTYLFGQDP

[19] = biological target: Estrogen receptor (Homo sapiens) (UniProt P03372); assay: Estrogen ER alpha (h) Eurofins-Cerep binding assay; parameters: ligand concentration 0.5 nM; conditions: filed as agonist, Compound concentration 10.0 uM
Estrogen receptor (Homo sapiens), sequence (P03372 whole entry): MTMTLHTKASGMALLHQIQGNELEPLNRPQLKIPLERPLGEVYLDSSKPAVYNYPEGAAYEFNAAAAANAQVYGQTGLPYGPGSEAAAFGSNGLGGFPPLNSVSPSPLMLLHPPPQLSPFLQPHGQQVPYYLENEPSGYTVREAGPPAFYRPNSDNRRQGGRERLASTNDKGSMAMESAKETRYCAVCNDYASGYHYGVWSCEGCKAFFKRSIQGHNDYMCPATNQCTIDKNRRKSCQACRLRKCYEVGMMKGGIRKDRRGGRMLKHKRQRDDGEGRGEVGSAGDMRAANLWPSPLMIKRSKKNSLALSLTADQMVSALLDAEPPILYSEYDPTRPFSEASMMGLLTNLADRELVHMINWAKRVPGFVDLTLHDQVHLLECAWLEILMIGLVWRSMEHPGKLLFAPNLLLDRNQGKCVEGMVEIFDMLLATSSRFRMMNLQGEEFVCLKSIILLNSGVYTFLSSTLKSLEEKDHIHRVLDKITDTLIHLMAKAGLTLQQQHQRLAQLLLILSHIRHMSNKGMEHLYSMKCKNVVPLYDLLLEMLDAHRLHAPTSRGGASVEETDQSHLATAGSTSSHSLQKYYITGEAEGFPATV

[20] = biological target: L-type Ca2+ channel (dihydropyridine site) (Rattus norvegicus, UniProt P22002+P27732+Q02485); assay: Ca2+ channel (L, dihydropyridine site) Eurofins-Cerep binding assay; assay type: protein assay; parameters: incubation time 90 min, incubation temperature RT, ligand concentration 0.1 nM; conditions: rat cerebral cortex, probe [3H]nitrendipine (0.1 nM), compound concentration 10 uM, read-out: % Inhibition of Control Specific Binding (Mean n=2)
[21] = biological target: L-type Ca2+ channel (diltiazem site, benzothiazepines) (Rattus norvegicus, UniProt P22002+P27732+Q02485); assay: Ca2+ channel (L, diltiazem site) (benzothiazepines) Eurofins-Cerep binding assay; assay type: protein assay; parameters: incubation time 120 min, incubation temperature RT, ligand concentration 15 nM; conditions: rat cerebral cortex, probe [3H]diltiazem (15 nM), compound concentration 10 uM, read-out: % Inhibition of Control Specific Binding (Mean n=2)
[22] = biological target: Sodium-dependent noradrenaline transporter (Homo sapiens) (UniProt P23975); assay: norepinephrine transporter (h) Eurofins-Cerep binding assay; parameters: ligand concentration 1 nM; conditions: filed as antagonist, Compound concentration 10.0 uM
[23] = biological target: Sodium- and chloride-dependent GABA transporter 1 (Rattus norvegicus) (UniProt P23978); assay: GABA transporter Eurofins-Cerep binding assay; parameters: ligand concentration 10 nM; conditions: filed as antagonist, Compound concentration 10.0 uM

Apoptosis regulator Bcl-2, sequence (P10415 whole entry): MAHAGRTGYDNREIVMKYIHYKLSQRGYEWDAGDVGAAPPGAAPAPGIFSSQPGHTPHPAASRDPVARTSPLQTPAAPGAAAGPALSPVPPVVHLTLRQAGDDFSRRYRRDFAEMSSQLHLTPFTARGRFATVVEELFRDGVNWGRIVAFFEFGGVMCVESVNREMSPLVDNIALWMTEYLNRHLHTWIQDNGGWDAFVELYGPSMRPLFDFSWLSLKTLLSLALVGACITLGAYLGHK
Induced myeloid leukemia cell differentiation protein Mcl-1, sequence (Q07820 whole entry): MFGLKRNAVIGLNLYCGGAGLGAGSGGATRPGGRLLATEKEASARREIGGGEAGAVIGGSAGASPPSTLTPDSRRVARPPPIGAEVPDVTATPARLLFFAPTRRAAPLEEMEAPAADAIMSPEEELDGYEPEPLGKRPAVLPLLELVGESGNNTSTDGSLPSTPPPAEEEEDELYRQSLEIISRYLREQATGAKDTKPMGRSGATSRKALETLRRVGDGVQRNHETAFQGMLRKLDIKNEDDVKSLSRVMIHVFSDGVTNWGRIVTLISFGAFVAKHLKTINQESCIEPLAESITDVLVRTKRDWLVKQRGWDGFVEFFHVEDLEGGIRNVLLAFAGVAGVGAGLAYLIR

| SMILES | IC50 [1] | IC50 [2] | % Inhibition of Control Values (Mean n=2) [3] [%] | inhibition at 60 min, 10 µM [4] [%] | % Inhibition of Control Values (Mean n=2) [5] [%] | % Inhibition of Control Specific Binding (Mean n=2) [6] [%] | % Inhibition of Control Specific Binding (Mean n=2) [7] [%] | % Inhibition of Control Specific Binding (Mean n=2) [8] [%] | % Inhibition of Control Specific Binding (Mean n=2) [9] [%] | % Inhibition of Control Specific Binding (Mean n=2) [10] [%] | % Inhibition of Control Specific Binding (Mean n=2) [11] [%] | % Inhibition of Control Specific Binding (Mean n=2) [12] [%] | % Inhibition of Control Specific Binding (Mean n=2) [13] [%] | % Inhibition of Control Specific Binding (Mean n=2) [14] [%] | % Inhibition of Control Specific Binding (Mean n=2) [15] [%] | % Inhibition of Control Specific Binding (Mean n=2) [16] [%] | % Inhibition of Control Specific Binding (Mean n=2) [17] [%] | % Inhibition of Control Specific Binding (Mean n=2) [18] [%] | % Inhibition of Control Specific Binding (Mean n=2) [19] [%] | inhibition at 90 min, 10 µM [20] [%] | also measured |
| --- | --- | --- | --- | --- | --- | --- | --- | --- | --- | --- | --- | --- | --- | --- | --- | --- | --- | --- | --- | --- | --- |
| O=C(Nc1nc2ccccc2s1)c1cccc2c1CN(c1nc(C(=O)O)c(CCOc3ccc(-n4ncc5cncnc54)cc3)s1)CC2 [A-1107969] | 3.78 µM (not active) | 2 µM (not active) | 68.2 | -2 | 12.6 | 28.3 | -4.7 | 77.2 | -9.4 | 68.9 | 13.5 | -5.1 | -7.3 | -1.8 | -1 | -39.6 | -4 | -47.8 | 8.4 | -2.2 | inhibition at 120 min, 10 µM [21]: 16.2%; % Inhibition of Control Specific Binding (Mean n=2) [22]: -4%; % Inhibition of Control Specific Binding (Mean n=2) [23]: -1.5% |
| CN(C)CC#Cc1ccc(OCCCc2sc(N3CCc4cccc(C(=O)Nc5nc6ccccc6s5)c4C3)nc2C(=O)O)c(F)c1 [A-1155463] | 0.382 µM (not active) | 14 µM (not active) | 39.5 | -2.2 | 2 | 51.8 | 15.5 | 41.3 | -6.8 | 98.9 | 27.1 | -2.2 | 28.6 | 77.9 | 32.2 | -7.1 | 6.7 | 57.8 | 11.9 | -21.8 | inhibition at 120 min, 10 µM [21]: 10.8%; % Inhibition of Control Specific Binding (Mean n=2) [22]: 20.9%; % Inhibition of Control Specific Binding (Mean n=2) [23]: 17.3% |
